Experimental data: the supplement of paper PMC10307832

Columns and labels:
Experiment in all cases: relative viability (nuclei count vs DMSO), 5 days (fraction); higher = more cells survive
BEN = system: BEN
In short: (§1)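 Nuclei were stained with Hoechst during a one-step fixation (final 0.05% Triton X-100, 1% formaldehyde, 1 ug/ml Hoechst) carried out 5 days after dosing, then counted on 4× images. The cells, lung cancer lines in 1536-well plates, had been dosed by pin tool the day after seeding with one drug alone or a fixed anchor-drug dose plus five library-drug doses (not always all listed) in √10 steps. Relative viability is the nuclei count in treated wells divided by that in vehicle wells, and each value is the median of duplicate plates.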

EKVX = system: EKVX
In short: as §1

HCC-827 = system: HCC-827
In short: as §1

HOP-62 = system: HOP-62
In short: as §1

LCLC-103H = system: LCLC-103H
In short: as §1

LK-2 = system: LK-2
In short: as §1

LOU-NH91 = system: LOU-NH91
In short: as §1

LXF-289 = system: LXF-289
In short: as §1

NCI-H1355 = system: NCI-H1355
In short: as §1

NCI-H1437 = system: NCI-H1437
In short: as §1

NCI-H1666 = system: NCI-H1666
In short: as §1

NCI-H1944 = system: NCI-H1944
In short: as §1

NCI-H1993 = system: NCI-H1993
In short: as §1

NCI-H2126 = system: NCI-H2126
In short: as §1

NCI-H441 = system: NCI-H441
In short: as §1

NCI-H647 = system: NCI-H647
In short: as §1

NCI-H661 = system: NCI-H661
In short: as §1

NCI-H727 = system: NCI-H727
In short: as §1

PC-14 = system: PC-14
In short: as §1

RERF-LC-KJ = system: RERF-LC-KJ
In short: as §1

SK-MES-1 = system: SK-MES-1
In short: as §1

SMILES: Cc1csc(=NC2CCCCC2)n1/N=C/c1ccc(O)c(O)c1O [MIM1] + C[C@]1(O)C[C@@H](c2nc(-c3ccc4ccc(-c5ccccc5)nc4c3)c3c(N)nccn32)C1 [Linsitinib] (partner 1 µM)
- relative viability (BEN; first compound 0.2 µM): 0.888
- relative viability (BEN; first compound 0.6325 µM): 0.877
- relative viability (BEN; first compound 2 µM): 0.981
- relative viability (BEN; first compound 6.325 µM): 0.826
- relative viability (BEN; first compound 20 µM): 0.42
- relative viability (EKVX; first compound 0.2 µM): 1.03
- relative viability (EKVX; first compound 0.6325 µM): 0.867
- relative viability (EKVX; first compound 2 µM): 0.958
- relative viability (EKVX; first compound 6.325 µM): 0.631
- relative viability (EKVX; first compound 20 µM): 0.667
- relative viability (HCC-827; first compound 0.2 µM): 0.955
- relative viability (HCC-827; first compound 0.6325 µM): 0.971
- relative viability (HCC-827; first compound 2 µM): 0.959
- relative viability (HCC-827; first compound 6.325 µM): 0.387
- relative viability (HCC-827; first compound 20 µM): 0.741
- relative viability (HOP-62; first compound 0.2 µM): 0.977
- relative viability (HOP-62; first compound 0.6325 µM): 1.04
- relative viability (HOP-62; first compound 2 µM): 0.905
- relative viability (HOP-62; first compound 6.325 µM): 0.658
- relative viability (HOP-62; first compound 20 µM): 0.936
- relative viability (LCLC-103H; first compound 0.2 µM): 0.994
- relative viability (LCLC-103H; first compound 0.6325 µM): 1.08
- relative viability (LCLC-103H; first compound 2 µM): 1.22
- relative viability (LCLC-103H; first compound 6.325 µM): 0.999
- relative viability (LCLC-103H; first compound 20 µM): 1.05
- relative viability (LK-2; first compound 0.2 µM): 0.801
- relative viability (LK-2; first compound 0.6325 µM): 0.631
- relative viability (LK-2; first compound 2 µM): 0.519
- relative viability (LK-2; first compound 6.325 µM): 0.566
- relative viability (LK-2; first compound 20 µM): 0.179
- relative viability (LOU-NH91; first compound 0.2 µM): 0.882
- relative viability (LOU-NH91; first compound 0.6325 µM): 0.978
- relative viability (LOU-NH91; first compound 2 µM): 0.728
- relative viability (LOU-NH91; first compound 6.325 µM): 0.851
- relative viability (LOU-NH91; first compound 20 µM): 0.592
- relative viability (LXF-289; first compound 0.2 µM): 0.943
- relative viability (LXF-289; first compound 0.6325 µM): 0.923
- relative viability (LXF-289; first compound 2 µM): 0.943
- relative viability (LXF-289; first compound 6.325 µM): 0.787
- relative viability (LXF-289; first compound 20 µM): 0.624
- relative viability (NCI-H1355; first compound 0.2 µM): 0.812
- relative viability (NCI-H1355; first compound 0.6325 µM): 0.882
- relative viability (NCI-H1355; first compound 2 µM): 0.898
- relative viability (NCI-H1355; first compound 6.325 µM): 0.74
- relative viability (NCI-H1355; first compound 20 µM): 0.879
- relative viability (NCI-H1437; first compound 0.2 µM): 0.967
- relative viability (NCI-H1437; first compound 0.6325 µM): 0.985
- relative viability (NCI-H1437; first compound 2 µM): 1.05
- relative viability (NCI-H1437; first compound 6.325 µM): 0.507
- relative viability (NCI-H1437; first compound 20 µM): 0.151
- relative viability (NCI-H1666; first compound 0.2 µM): 0.791
- relative viability (NCI-H1666; first compound 0.6325 µM): 0.753
- relative viability (NCI-H1666; first compound 2 µM): 0.732
- relative viability (NCI-H1666; first compound 6.325 µM): 0.606
- relative viability (NCI-H1666; first compound 20 µM): 0.526
- relative viability (NCI-H1944; first compound 0.2 µM): 1.12
- relative viability (NCI-H1944; first compound 0.6325 µM): 1.13
- relative viability (NCI-H1944; first compound 2 µM): 0.923
- relative viability (NCI-H1944; first compound 6.325 µM): 1
- relative viability (NCI-H1944; first compound 20 µM): 1.46
- relative viability (NCI-H1993; first compound 0.2 µM): 0.736
- relative viability (NCI-H1993; first compound 0.6325 µM): 0.715
- relative viability (NCI-H1993; first compound 2 µM): 0.63
- relative viability (NCI-H1993; first compound 6.325 µM): 0.68
- relative viability (NCI-H1993; first compound 20 µM): 0.646
- relative viability (NCI-H2126; first compound 0.2 µM): 0.715
- relative viability (NCI-H2126; first compound 0.6325 µM): 0.695
- relative viability (NCI-H2126; first compound 2 µM): 0.744
- relative viability (NCI-H2126; first compound 6.325 µM): 0.707
- relative viability (NCI-H2126; first compound 20 µM): 0.702
- relative viability (NCI-H441; first compound 0.2 µM): 0.612
- relative viability (NCI-H441; first compound 0.6325 µM): 0.528
- relative viability (NCI-H441; first compound 2 µM): 0.543
- relative viability (NCI-H441; first compound 6.325 µM): 0.709
- relative viability (NCI-H441; first compound 20 µM): 0.145
- relative viability (NCI-H647; first compound 0.2 µM): 1.28
- relative viability (NCI-H647; first compound 0.6325 µM): 1.07
- relative viability (NCI-H647; first compound 2 µM): 1.32
- relative viability (NCI-H647; first compound 6.325 µM): 0.807
- relative viability (NCI-H647; first compound 20 µM): 0.868
- relative viability (NCI-H661; first compound 0.2 µM): 0.575
- relative viability (NCI-H661; first compound 0.6325 µM): 0.737
- relative viability (NCI-H661; first compound 2 µM): 0.547
- relative viability (NCI-H661; first compound 6.325 µM): 0.449
- relative viability (NCI-H661; first compound 20 µM): 0.255
- relative viability (NCI-H727; first compound 0.2 µM): 0.311
- relative viability (NCI-H727; first compound 0.6325 µM): 0.284
- relative viability (NCI-H727; first compound 2 µM): 0.276
- relative viability (NCI-H727; first compound 6.325 µM): 0.278
- relative viability (NCI-H727; first compound 20 µM): 0.266
- relative viability (PC-14; first compound 0.2 µM): 0.893
- relative viability (PC-14; first compound 0.6325 µM): 0.932
- relative viability (PC-14; first compound 2 µM): 0.956
- relative viability (PC-14; first compound 6.325 µM): 0.719
- relative viability (PC-14; first compound 20 µM): 0.499
- relative viability (RERF-LC-KJ; first compound 0.2 µM): 0.81
- relative viability (RERF-LC-KJ; first compound 0.6325 µM): 0.866
- relative viability (RERF-LC-KJ; first compound 2 µM): 0.773
- relative viability (RERF-LC-KJ; first compound 6.325 µM): 0.473
- relative viability (RERF-LC-KJ; first compound 20 µM): 0.287
- relative viability (SK-MES-1; first compound 0.2 µM): 0.988
- relative viability (SK-MES-1; first compound 0.6325 µM): 0.988
- relative viability (SK-MES-1; first compound 2 µM): 1.02
- relative viability (SK-MES-1; first compound 6.325 µM): 0.853
- relative viability (SK-MES-1; first compound 20 µM): 0.848
